Reference: patent US11986532B2 (Arvinas Operations, Inc., priority 2021, dated 2024)
Read-outs that look alike come from different tables or passages of the source.

Target: T1, BCL6 (Homo sapiens, UniProt P41182)
T1 construct: endogenous in cells; host or cells: T47D breast cancer epithelial cells
Test: Immunofluorescence protocol for high content imaging of BCL6 (degradation) in T47D cells, 3 days compound treatment
Format: cell-based
Conditions: for DC50: read-out: Mean DC50 (nM)* category; for Dmax: read-out: Mean Dmax (%)** category
How it was run: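 Read-out: high-content imaging of anti-BCL6 immunofluorescence (Alexa-488 secondary) with CellMask and Hoechst counterstains, 10×, 4 fields/well. Cells had 3 days of compound exposure at 37° C, 5% CO2, 11-point 3-fold series from a final top of 0.1 or 1 μM.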

[1] = T47D cells, 3 days compound treatment

SMILES	DC50 [nM]	DC50 [1] [nM]	Dmax [1] [%]	Dmax (T47D) [%]	Mean Dmax (%)** category
CNC(=O)COc1cc2cc(Nc3cc(N4CCC(CN5CCC6(CN(c7ccc8c(c7OC)CN(C7CCC(=O)NC7=O)C8=O)C6)C(F)(F)C5)CC4)ncc3Cl)ccc2n(C(C)C)c1=O (stereo not drawn) [Compound 232, 2-{[6-({5-chloro-2-[4-({2-[2-(2,6-dioxopiperidin-3-yl)-4-methoxy-1-oxo-2,3-dihydro-1H-isoindol-5-yl]-5,5-difluoro-2,7-diazaspiro[3.5]nonan-7-yl}methyl)piperidin-1-yl]pyridin-4-yl}amino)-2-oxo-1-(propan-2-yl)-1,2-dihydroquinolin-3-yl]oxy}-N-methylacetamide]	< 10				
CNC(=O)COc1cc2cc(Nc3nc(N4CCN(C(=O)C5CCC6(CCN(c7ccc8c(c7)CN(C7CCC(=O)NC7=O)C8=O)C6)C5)CC4)ncc3Cl)ccc2n(C(C)C)c1=O (stereo not drawn) [Compound 66, 2-[(6-{[5-chloro-2-(4-{2-[2-(2,6-dioxopiperidin-3-yl)-1-oxo-2,3-dihydro-1H-isoindol-5-yl]-2-azaspiro[4.4]nonane-7-carbonyl}piperazin-1-yl)pyrimidin-4-yl]amino}-2-oxo-1-(propan-2-yl)-1,2-dihydroquinolin-3-yl)oxy]-N-methylacetamide]		< 10	< 50		
CNC(=O)COc1cc2cc(Nc3nc(N4CCC(OC5CCC6(CC5)CN(c5ccc7c(c5C)CN(C5CCC(=O)NC5=O)C7=O)C6)CC4)ncc3Cl)ccc2n(C(C)C)c1=O (stereo not drawn) [Compound 402, 2-{[6-({5-chloro-2-[4-({2-[2-(2,6-dioxopiperidin-3-yl)-4-methyl-1-oxo-2,3-dihydro-1H-isoindol-5-yl]-2-azaspiro[3.5]nonan-7-yl}oxy)piperidin-1-yl]pyrimidin-4-yl}amino)-2-oxo-1-(propan-2-yl)-1,2-dihydroquinolin-3-yl]oxy}-N-methylacetamide]	< 10			≥ 70	
CNC(=O)COc1cc2cc(Nc3nc(N4CCC(CN5CC6(CCN(c7ccc8c(c7)C(=O)N(C7CCC(=O)NC7=O)C8=O)CC6(F)F)C5)CC4)ncc3Cl)ccc2n(C(C)C)c1=O (stereo not drawn) [Compound 135, 2-{[6-({5-chloro-2-[4-({7-[2-(2,6-dioxopiperidin-3-yl)-1,3-dioxo-2,3-dihydro-1H-isoindol-5-yl]-5,5-difluoro-2,7-diazaspiro[3.5]nonan-2-yl}methyl)piperidin-1-yl]pyrimidin-4-yl}amino)-2-oxo-1-(propan-2-yl)-1,2-dihydroquinolin-3-yl]oxy}-N-methylacetamide]		< 10	50 to 70		
CNC(=O)COc1cc2cc(Nc3nc(N4CCC(O[C@H]5C[C@H](N6[C@H](C)CN(c7ccc8c(c7)C(=O)N(C7CCC(=O)NC7=O)C8=O)C[C@H]6C)C5)CC4)ncc3Cl)ccc2n(C(C)C)c1=O (stereo partly drawn) [Compound 249, 2-({6-[(5-chloro-2-{4-[(1r,3r)-3-[(2R,6R)-4-[2-(2,6-dioxopiperidin-3-yl)-1,3-dioxo-2,3-dihydro-1H-isoindol-5-yl]-2,6-dimethylpiperazin-1-yl]cyclobutoxy]piperidin-1-yl}pyrimidin-4-yl)amino]-2-oxo-1-(propan-2-yl)-1,2-dihydroquinolin-3-yl}oxy)-N-methylacetamide]	10 to 50			< 50	
CNC(=O)COc1cc2cc(Nc3nc(N4CCC(CN5CCC6(CC5)CN(c5cc(OC)c7c(c5)C(=O)N(C5CCC(=O)NC5=O)C7=O)C6)CC4)ncc3Cl)ccc2n(C(C)C)c1=O (stereo not drawn) [Compound 83, 2-{[6-({5-chloro-2-[4-({2-[2-(2,6-dioxopiperidin-3-yl)-7-methoxy-1,3-dioxo-2,3-dihydro-1H-isoindol-5-yl]-2,7-diazaspiro [3.5]nonan-7-yl}methyl)piperidin-1-yl]pyrimidin-4-yl}amino)-2-oxo-1-(propan-2-yl)-1,2-dihydroquinolin-3-yl]oxy}-N-methylacetamide]		< 10	50 to 70		
CNC(=O)COc1cc2cc(Nc3nc(N4CCC(O[C@H]5C[C@H](N6C[C@@H](C)N(c7ccc8c(c7)C(=O)N(C7CCC(=O)NC7=O)C8=O)[C@H](C)C6)C5)CC4)ncc3Cl)ccc2n(C(C)C)c1=O (stereo partly drawn) [Compound 245, 2-({6-[(5-chloro-2-{4-[(1r,3r)-3-[(3R,5R)-4-[2-(2,6-dioxopiperidin-3-yl)-1,3-dioxo-2,3-dihydro-1H-isoindol-5-yl]-3,5-dimethylpiperazin-1-yl]cyclobutoxy]piperidin-1-yl}pyrimidin-4-yl)amino]-2-oxo-1-(propan-2-yl)-1,2-dihydroquinolin-3-yl}oxy)-N-methylacetamide]	10 to 50			≥ 70	
CNC(=O)COc1cc2cc(Nc3nc(N4CCC(O[C@H]5C[C@H](N6CCC7(CN(c8ccc9c(c8)C(=O)N(C8CCC(=O)NC8=O)C9=O)C7)C6)C5)CC4)ncc3Cl)ccc2n(C(C)C)c1=O (stereo partly drawn) [Compound 338, 2-({6-[(5-chloro-2-{4-[(1r,3r)-3-{2-[2-(2,6-dioxopiperidin-3-yl)-1,3-dioxo-2,3-dihydro-1H-isoindol-5-yl]-2,6-diazaspiro[3.4]octan-6-yl}cyclobutoxy]piperidin-1-yl}pyrimidin-4-yl)amino]-2-oxo-1-(propan-2-yl)-1,2-dihydroquinolin-3-yl}oxy)-N-methylacetamide]	10 to 50			≥ 70	
CNC(=O)COc1cc2cc(Nc3nc(N4CCN(CC5CCC6(CC5)CN(c5c(OC)ccc7c5C(=O)N(C5CCC(=O)NC5=O)C7=O)C6)CC4)ncc3Cl)ccc2n(C(C)C)c1=O (stereo not drawn) [Compound 9, 2-{[6-({5-chloro-2-[4-({2-[2-(2,6-dioxopiperidin-3-yl)-5-methoxy-1,3-dioxo-2,3-dihydro-1H-isoindol-4-yl]-2-azaspiro[3.5]nonan-7-yl}methyl)piperazin-1-yl]pyrimidin-4-yl}amino)-2-oxo-1-(propan-2-yl)-1,2-dihydroquinolin-3-yl]oxy}-N-methylacetamide]		< 10	< 50		
CNC(=O)COc1cc2cc(Nc3nc(N4CCC(O[C@H]5C[C@H](N6CCN(c7ccc8c(n7)CN(C7CCC(=O)NC7=O)C8=O)CC6)C5)CC4)ncc3Cl)ccc2n(C(C)C)c1=O (stereo partly drawn) [Compound 189, 2-((6-((5-chloro-2-(4-((1r,3r)-3-(4-(6-(2,6-dioxopiperidin-3-yl)-5-oxo-6,7-dihydro-5H-pyrrolo[3,4-b]pyridin-2-yl)piperazin-1-yl)cyclobutoxy)piperidin-1-yl)pyrimidin-4-yl)amino)-1-isopropyl-2-oxo-1,2-dihydroquinolin-3-yl)oxy)-N-methylacetamide]		< 10	50 to 70		
CNC(=O)COc1cc2cc(Nc3cc(N4CCC(CN5CCC6(CN(c7ccc8c(c7F)CN(C7CCC(=O)NC7=O)C8=O)C6)C(F)(F)C5)CC4)ncc3Cl)ccc2n(C(C)C)c1=O (stereo not drawn) [Compound 237, 2-{[6-({5-chloro-2-[4-({2-[2-(2,6-dioxopiperidin-3-yl)-4-fluoro-1-oxo-2,3-dihydro-1H-isoindol-5-yl]-5,5-difluoro-2,7-diazaspiro[3.5]nonan-7-yl}methyl)piperidin-1-yl]pyridin-4-yl}amino)-2-oxo-1-(propan-2-yl)-1,2-dihydroquinolin-3-yl]oxy}-N-methylacetamide]	< 10			50 to 70	
CNC(=O)COc1cc2cc(Nc3nc(N4CCC(O[C@H]5C[C@H](N6CCC7(CCN(c8ccc9c(c8)CN(C8CCC(=O)NC8=O)C9=O)CC7)C6)C5)CC4)ncc3Cl)ccc2n(C(C)C)c1=O (stereo partly drawn) [Compound 363, 2-({6-[(5-chloro-2-{4-[(1r,3r)-3-{8-[2-(2,6-dioxopiperidin-3-yl)-1-oxo-2,3-dihydro-1H-isoindol-5-yl]-2,8-diazaspiro[4.5]decan-2-yl}cyclobutoxy]piperidin-1-yl}pyrimidin-4-yl)amino]-2-oxo-1-(propan-2-yl)-1,2-dihydroquinolin-3-yl}oxy)-N-methylacetamide]	< 10				A (A >= 70)
CNC(=O)COc1cc2cc(Nc3nc(N4CCC(O[C@H]5C[C@H](N6CCC7(CN(c8ccc9c(c8)C(=O)N(C8CCC(=O)NC8=O)C9)C7)C6)C5)CC4)ncc3Cl)ccc2n(C(C)C)c1=O (stereo partly drawn) [Compound 345, 2-({6-[(5-chloro-2-{4-[(1r,3r)-3-{2-[2-(2,6-dioxopiperidin-3-yl)-3-oxo-2,3-dihydro-1H-isoindol-5-yl]-2,6-diazaspiro [3.4]octan-6-yl}cyclobutoxy]piperidin-1-yl}pyrimidin-4-yl)amino]-2-oxo-1-(propan-2-yl)-1,2-dihydroquinolin-3-yl}oxy)-N-methylacetamide]	< 10			≥ 70	
CNC(=O)COc1cc2cc(Nc3ncncc3Cl)ccc2n(CCOc2ccc3c(c2)C(=O)N(C2CCC(=O)NC2=O)C3=O)c1=O (stereo not drawn) [Compound 146, 2-({6-[(5-chloropyrimidin-4-yl)amino]-1-(2-{[2-(2,6-dioxopiperidin-3-yl)-1,3-dioxo-2,3-dihydro-1H-isoindol-5-yl]oxy}ethyl)-2-oxo-1,2-dihydroquinolin-3-yl}oxy)-N-methylacetamide]		< 10			
CNC(=O)COc1cc2cc(Nc3nc(N4CCC(O[C@H]5C[C@H](N6[C@@H](C)CN(c7ccc8c(c7)C(=O)N(C7CCC(=O)NC7=O)C8=O)C[C@@H]6C)C5)CC4)ncc3Cl)ccc2n(C(C)C)c1=O (stereo partly drawn) [Compound 253, 2-({6-[(5-chloro-2-{4-[(1r,3r)-3-[(2S,6S)-4-[2-(2,6-dioxopiperidin-3-yl)-1,3-dioxo-2,3-dihydro-1H-isoindol-5-yl]-2,6-dimethylpiperazin-1-yl]cyclobutoxy]piperidin-1-yl}pyrimidin-4-yl)amino]-2-oxo-1-(propan-2-yl)-1,2-dihydroquinolin-3-yl}oxy)-N-methylacetamide]	10 to 50			≥ 70	
CNC(=O)COc1cc2cc(Nc3nc(N4CCC(OC5CN([C@H]6CC[C@H](c7ccc8c(c7)C(=O)N(C7CCC(=O)NC7=O)C8=O)CC6)C5)CC4)ncc3Cl)ccc2n(C(C)C)c1=O (stereo partly drawn) [Compound 341, 2-{[6-({5-chloro-2-[4-({1-[(1r,4r)-4-[2-(2,6-dioxopiperidin-3-yl)-1,3-dioxo-2,3-dihydro-1H-isoindol-5-yl]cyclohexyl]azetidin-3-yl}oxy)piperidin-1-yl]pyrimidin-4-yl}amino)-2-oxo-1-(propan-2-yl)-1,2-dihydroquinolin-3-yl]oxy}-N-methylacetamide]	10 to 50			50 to 70	
